Assay results taken from patent US12319913B2, “5-halouracil-modified microRNAs and their use in the treatment of cancer” (The Research Foundation for The State University of New York, priority 2018, dated 2025).
[5FU] = 5-fluorouracil base replacing uracil

What was measured:
[1] = system: acute lymphocytic leukemia cell line (REH); assay: Cell proliferation, REH; type: cell-based, human; conditions: compared to negative controls
Method: (§1) For transfections, 1×10^5 cells were plated in six-well plates and transfected with 100 nM of control non-specific miRNA (Thermo Fischer), a modified microRNA, or exogenous native microRNA after 24 hours using Oligofectamine (Thermo Fischer) following the manufacturer's protocols. For reagent free transfection, cells were plated in 6 well plates at (1×10^5) cells per well. Twenty-four hours later 100 pmol miRNA (Control, miR-15a, Mimic-1) were diluted in Optimem (Thermo Fischer) and added to the plate. Media was changed after 24 hours. Media was supplemented with 10% fetal bovine serum (Thermo Fischer). Briefly, cells were cultured in growth media (DMEM/F12 supplemented with B27, 10 ng/mL bFGF, and 20 ng/mL EGF (Life Technologies) in ultra-low attachment flasks) for up to 6 days. The spheroid cells were maintained by collection through gentle centrifugation, dissociation to single cells and replating.
(§2) Cell proliferation assay: Twenty-four hours after transfection, cells were seeded in 96-well plates at a density of 2000 cells per well. The cell proliferation assay was performed on days 1 to 5 by incubating 10 μl WST-1 (Roche Applied Science, Mannheim, Germany) in the culture medium for 1 h and reading the absorbance at 450 and 630 nm. The cell proliferation rate was calculated by subtracting the […]. Experiments for the cell proliferation assay were performed at least three times. The O.D. was calculated by subtracting the absorbance at 630 nm from that at 450 nm. Proliferation experiments were performed three times.

[2] = system: colorectal cancer stem cell xenograft; assay: Colorectal cancer stem cell mouse xenograft model; type: in vivo; conditions: cells pre transfected, eight weeks after injection, n=8
Method: Mouse subcutaneous tumor implantation model: Two days before injection, HCT116 colorectal cancer stem cells or MDA-MB-231 breast cancer cells were plated at 5×10^5/well in a 6-well ultra low attachment plate. 20 μL of the virus or 100 pmole exemplary modified miR-129 or modified miR-15a were used to transduce or transfect cells. Forty-eight hours later, cells were collected and re-suspended at 10^6/ml in DMEM/F12 knockout media with 30% matrigel. Ten-twelve week-old NOD/SCID mice (Jackson Laboratories, Bar Harbor, […], USA) were used for tumor implantation. The mice were anesthetized by isoflurane inhalation. 100 μL of cell suspension was injected subcutaneously into both sides of the lower back area. The tumor size was measured using a caliper, and tumor volume was calculated using the formula V=length×width^2/2.
Modified miR-15a inhibits cancer development and progression in vivo. A colorectal cancer stem cell mouse xenograft model was established that included colorectal cancer cells that have been either pre transfected with modified miR-15a or negative control miRNA. Eight weeks after injection, tumors were measured and harvested.

[3] = system: Panc-1 pancreatic cancer cells; assay: Cell proliferation, Panc-1; type: cell-based, human; conditions: for cell proliferation, dose dependence: PANC-1, 50 nM, 25 nM, 12.5 nM, 6.25 nM, and 3.125 nM
Method: as §1, with “For transfections, 1×10^5 cells were plated in six-well plates and transfected with 100 nM of control non-specific miRNA (Thermo Fischer), a modified microRNA, or exogenous native microRNA after 24 hours using Oligofectamine (Thermo Fischer) following the manufacturer's protocols.” left out
as §2

SW620 colon cancer cells = assay: WST-1 cell proliferation assay, SW620; type: cell-based, human; conditions: SW620, in words, vs controls
Method: as §1, with “The spheroid cells were maintained by collection through gentle centrifugation, dissociation to single cells and replating.” left out
as §2, with “Experiments for the cell proliferation assay were performed at least three times.” left out, “Proliferation experiments were performed three times.” left out

A549 lung cancer cells = assay: Cell proliferation, A549; type: cell-based, human; conditions: for lung cancer cell proliferation: A549, compared to negative controls; for inhibition of cell proliferation: A549, compared to unmodified miR or negative controls
Method: as §1, §2

RKO colon cancer cells = assay: WST-1 cell proliferation assay, RKO; type: cell-based, human; conditions: in words, vs controls
Method: as §1, with “The spheroid cells were maintained by collection through gentle centrifugation, dissociation to single cells and replating.” left out
as §2, with “Experiments for the cell proliferation assay were performed at least three times.” left out, “Proliferation experiments were performed three times.” left out

[4] = system: Hs766T pancreatic cancer cells; assay: Cell proliferation, Hs766T; type: cell-based, human; conditions: compared to negative controls
Method: as §1, §2

TS, BCL2 and E2F3 = assay: Western immunoblot of miR-129 targets in HCT-116 cells; type: cell-based, human; conditions: colon cancer HCT-116 cells
Method: Western immunoblot analysis: Forty-eight hours after transfection, equal amounts of protein (15 μg) extracted from cells lysed in RIPA buffer with protease inhibitor (Sigma) and were separated on 10%-12% sodium dodecyl sulfate-polyacrylamide gels using standard procedures. The primary antibodies used for the analysis were rabbit anti-YAP1 monoclonal antibody (1:10000) (Cell Signaling Technologies), anti-DLCK1 (1:500) (Abcam), anti-BCL2 (1:500) (NeoMarkers), anti-MDC1 (1:500), anti-SUZ12 (1:500), anti-pChk-1 (1:500), anti beta-actin (1:500), anti-BMI-1 (1:10000) (Cell Signaling Technologies), mouse anti-human TS antibody (1:500), anti-α-tubulin (1:50000) (Santa Cruz Biotech Inc.), anti-GAPDH (1:100000) (Santa Cruz Biotech Inc.), anti-E2F3 (1:500) (Santa Cruz Biotech Inc.), Horseradish peroxidase-conjugated antibodies against mouse or rabbit (1:5000, Santa Cruz Biotech Inc.) were used as the secondary antibodies. Protein bands were visualized with autoradiography film using SuperSignal West Pico Chemiluminescent Substrate (Thermo Fischer). Western blot density was quantified using Image J software.

SW480 colon cancer cells = assay: WST-1 cell proliferation assay, SW480; type: cell-based, human; conditions: SW480, in words, vs controls
Method: as §1, with “The spheroid cells were maintained by collection through gentle centrifugation, dissociation to single cells and replating.” left out
as §2, with “Experiments for the cell proliferation assay were performed at least three times.” left out, “Proliferation experiments were performed three times.” left out

[5] = system: HCT-116 colon cancer cells; assay: 5-FU treatment and cytotoxicity assay (WST-1); type: cell-based, human; conditions: 50 nM modified miR-129 vs 2 μM 5-FU
Method: 5-FU treatment and cytotoxicity assay: Twenty-four hours after transfection, cancer cells were plated in 96-well plates at 2×10^3 cells per well in triplicates in 100 μL of medium. After 24 hours, fresh medium containing 2 μM 5-FU alone, 50 nM native microRNA, 50 nM modified microRNA (e.g., modified miR-129), or a combination of […] with 50 nM a modified microRNA of the present disclosure e.g., modified miR-129, were added, and cells were cultured for an additional 72 hours. Cell viability was measured using the WST-1 assay.

Substance	leukemia cancer cell proliferation [1]	reduction in tumor size [2] [×]	cell proliferation, dose dependence [3]	inhibition of cell proliferation ([3]; Panc-1, compared to unmodified miR or negative controls)	inhibition of colon cancer cell proliferation (SW620 colon cancer cells)	lung cancer cell proliferation (A549 lung cancer cells)	inhibition of cell proliferation (A549 lung cancer cells)	inhibition of colon cancer cell proliferation (RKO colon cancer cells)	pancreatic cancer cell proliferation [4]	target specificity to TS, BCL2 and E2F3 (TS, BCL2 and E2F3; Western immunoblot)	reducing the expression levels of TS, BCL2 and E2F3 (TS, BCL2 and E2F3; compared with unmodified (control) miR-129)	inhibition of colon cancer cell proliferation (SW480 colon cancer cells)	inhibiting tumor cell proliferation, potency compared with 5-FU [5]
U^FAGCAGCACAU^FAAU^FGGU^FU^FU^FGU^FG (UAGCAGCACAUAAUGGUUUGUG; RNA, [5FU] at 1, 11, 14, 17, 18, 19, 21, backbone not given here) [modified miR-15a]	inhibited	> 25	inhibited in a dose dependent manner	enhanced ability to inhibit	enhanced ability to inhibit colon cancer cell proliferation	inhibited	enhanced ability to inhibit	enhanced ability to inhibit colon cancer cell proliferation	inhibited	–	–	–	–
CU^FU^FU^FU^FU^FGCGGU^FCU^FGGGCU^FU^FGC (CUUUUUGCGGUCUGGGCUUGC; RNA, [5FU] at 2, 3, 4, 5, 6, 11, 13, 18, 19, backbone not given here) [modified miR-129]	inhibited	–	inhibited in a dose dependent manner	–	inhibition of colon cancer cell proliferation	inhibited	enhanced ability to inhibit	inhibition of colon cancer cell proliferation	inhibited	retain their target specificity	more potent than unmodified (control) miR-129	inhibition of colon cancer cell proliferation	much more potent than 2 μM 5-FU
